The test deals with P388 lymphocytic leukemia (PS System) cell line. In words: P388 lymphocytic leukemia in vitro cell line growth inhibition (PS bioassay). It is filed as cell-based, murine. On the procedure: Because of the dolastatin's potency, the sea hare seems to require only vanishingly small quantities (about 1 mg each from 100 kg), making isolation and structural elucidation of these peptides exceptionally challenging. Later another substance was isolated and determined to be a unique linear pentapeptide and was denominated "dolastatin 10".

In brackets after ≈: the same amount, converted by molar mass. Like-named read-outs stand apart in the source and are kept apart here.

`C/C=C1/NC(=O)C(NC(=O)C(NC(=O)C(CO)OC)C(C)C)C(C)OC(=O)C(C(C)C)NC(=O)C(Cc2ccccc2)N(C)C(=O)C(Cc2ccccc2)N2C(=O)C(CCC2O)NC1=O` (centres unmarked) [dolastatin 13] showed an ED50 of 1.3 ng/mL (≈ 1.43 nM). This molecule had an ED50 (listed as Dolastatin 13) of 13 ng/mL (≈ 14.3 nM).

The record behind these values is patent US4986988A, “Isolation and structural elucidation of the cytostatic linear depsipeptides dolastatin 13 and dehydrodolastatin 13” (priority 1989, dated 1991).
